Structures are written as SMILES.

Data set [1] addresses T1, mineralocorticoid receptors (Homo sapiens, UniProt P08235).
T1 construct: expressed in transfected cells; host or cells: HEK293T
T1 sequence (P08235 726-964 limits assumed): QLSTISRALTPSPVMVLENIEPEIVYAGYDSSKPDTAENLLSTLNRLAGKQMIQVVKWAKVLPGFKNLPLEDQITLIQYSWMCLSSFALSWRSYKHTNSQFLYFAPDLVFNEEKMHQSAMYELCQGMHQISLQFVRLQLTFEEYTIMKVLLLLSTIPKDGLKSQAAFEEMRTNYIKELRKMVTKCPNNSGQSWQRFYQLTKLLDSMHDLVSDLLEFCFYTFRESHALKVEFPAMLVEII
In words: Assay for in-vitro antagonistic activity against mineralocorticoid receptors (Gal4-MR LBD luciferase reporter in HEK293T cells, 1 nM aldosterone). The class given is cell-based. An excerpt: In in-vitro activity assays of compounds in the disclosure, the characteristic of luciferase binding to the substrate to cause a chemiluminescence reaction can be utilized to transfect human embryonic kidney cells (HEK293T) with a plasmid comprising the mineralocorticoid receptor ligand binding domain (LBD) and fused with the Gal4 DNA-binding domain (DBD) and a firefly luciferase reporter gene plasmid under the control of Gal4 UAS (upstream activation sequence). The influence of the presence of stimulation or different stimuli on mineralocorticoid receptor activity is judged by the level of firefly luciferase activity.
Test Example 1: Assay for In-Vitro Antagonistic Activity Against Mineralocorticoid Receptors
All the compounds to be tested were serially diluted 3-fold from 10 mM with DMSO (Sigma, D8418), and 10 concentrations were obtained for each of the compounds.
The reference compound eplerenone was serially diluted 3-fold with DMSO to form 10 concentrations.
A 1000× positive control (10 mM eplerenone) and a 1000× negative control (100% DMSO) were prepared.
• 2.1. All cells were cultured as recommended by ATCC. HEK293T cells were passaged and plated when in the exponential growth phase. • 2.2. The old culture medium in the cell culture flask was discarded, and the cells were washed with PBS. • 2.3. A proper amount of TrypLE solution was added to the culture flask to digest the cells to separate them, and the digestion was stopped with a serum-containing complete culture medium. • 2.4. The cell suspension was centrifuged to make the cells settle. The cells were washed with PBS 2 times to remove phenol red and were then suspended with culture medium to a proper concentration (only cells with a survival rate of greater than 90% were used in the subsequent experiments). • 2.5. 6×10^6 HEK293T cells were spread on a 100 mm Petri dish and incubated in a 37° C., 5% CO2 incubator for 16 h. • 2.6. The cells were transfected with plasmids and then incubated in a 37° C., 5% CO2 incubator for another 5-6 h. • 2.7. 25 nL of compound dilution was transferred to a 384-well assay plate using Echo655. • 2.8. HEK293T cells were plated at a concentration of 17,000 cells/well in a 384-well plate, and meanwhile 1 nM aldosterone was added to each well. • 2.9. The cells were incubated in a 37° C., 5% CO2 incubator for 18-20 h. • 2.10. 25 μL of britelite+luciferase assay reagent was added to each well of the 384-well assay plate, and luminescence values were recorded on an Envision 2105 plate reader. • 2.11. The IC50 values of the compounds were obtained using the software Graphad 8.0 and a non-linear fitting equation.

The subject of data set [2] is db/db mice (idiopathic type II diabetes model mice). In words: Efficacy test with db/db mouse model of diabetic nephropathy. Particulars: for mALB compared to the model control group / urine albumin-to-creatinine ratio (UACR) compared to the model control group / urine amount compared to the model control group: after 4 weeks of administration, in words; for UACR / Urine creatinine / Urine weight / mALB: Mean±SEM. The class given is in vivo. Here is the method: Test Example 3: Efficacy Test with db/db Mouse Model of Diabetic Nephropathy
Proper amounts of compound 2-2 and finerenone were taken and separately mixed with a 0.5% hydroxyethyl cellulose solution (Tylose MH300) to form suspensions.
30 db/db mice (idiopathic type II diabetes model mice) were selected and divided into a model control group, a positive control group, and an administration group, and 10 db/m mice were selected as a control group.
The mice were dosed by oral gavage (i.g) once daily over 4 consecutive weeks. The dosing regimen is shown in detail in Table 4.
Urine albumin was used as a main measure. The data obtained were analyzed statistically using EXCEL and IBM SPSS Statistics 22.0.
All metrology data are expressed as Mean±SEM s. The parameters before and after dosing were plotted for the different groups of animals using the software Graph Pad Prism 8. Data were analyzed using the statistical software SPSS 22.0. A Levene's test of homogeneity of variance was performed on the parameters. When the variance was homogenous (P≥0.05), the Dunnett's & LSD method from the one-way analysis of variance (ANOVA) was used to compare the differences between the groups. When the variance was not homogenous (P<0.05), the Mann-Whitney U test (the M-W method) from the Kruskal-Wallis H test (the K-W method) was used to compare the differences between the groups. For animal survival, the log-rank test from the product-limit method (the K-M method) was used to compare the differences between the groups.

The nature of data set [3]: Human liver microsome metabolism study. The class given is in vitro ADME. Particulars: human liver microsomes. As to the method: Test Example 2: Human Liver Microsome Metabolism Study
222.5 μL of human liver microsomes (protein concentration: 1 mg/mL) and 25 μL of NADPH ([…]) were added to an incubation plate and pre-heated for 10 min. 2.5 μL of control compound and test compound (100 μM) were added.
30-μL aliquots were taken from the reaction solution at 0.5, 5, 10, 15, 20, and 30 min. The reaction was stopped by adding 5 volumes of cold acetonitrile containing IS (100 nM alprazolam, 200 nM caffeine, and 100 nM tolbutamide). The reaction solution was centrifuged, and 100 μL of the supernatant was collected and mixed with 100 μL of ultrapure H2O before analysis by LC-MS/MS.
The slope value k was determined by linear regression of the natural logarithm of a curve of the parent drug remaining percentage versus incubation time.
The in-vitro half-life (in-vitro T1/2) was determined by the slope value:
Using the following equation (the average of repeated measurements), the in-vitro T½ (min) was converted to in-vitro intrinsic clearance (in-vitro CLint, in μL/min/mg protein): […]

Setting [4] is: 15 mg/kg i.g. once daily, 4 weeks.

`COc1cc(C#N)ccc1C1C(C(N)=O)=C(C)Nc2c(C)cnc(OCCSC)c21` (centres unmarked) [Compound 1] registered an IC50 in data set [1] of 16 nM. This lies in the double-digit nanomolar range.

For `[2H]C([2H])([2H])Oc1cc(C#N)ccc1C1C(C(N)=O)=C(C)Nc2c(C)cnc(OCC)c21` (centres unmarked) [Compound 2], in data set [2], the “mALB compared to the model control group” value is recorded as “tended to be lower than those in the model control group”, the “urine albumin-to-creatinine ratio (UACR) compared to the model control group” value is listed as “statistically significantly smaller than that of the mice in the model control group (P<0.01)” and the “urine amount compared to the model control group” value was “tended to be lower than those in the model control group”. Besides, it took 7 nM to reach half-maximal inhibition in data set [1] (IC50).

Compound `[2H]C([2H])([2H])C([2H])([2H])Oc1ncc(C)c2c1C(c1ccc(C#N)cc1OC)C(C(N)=O)=C(C)N2` (centres unmarked) [Compound 3] registered a 50% inhibitory concentration (IC50) in data set [1] of 17 nM.

For `CCOc1ncc(Cl)c2c1C(c1ccc(C#N)cc1OC)C(C(N)=O)=C(C)N2` (centres unmarked) [Compound 4], it took 11 nM to reach half-maximal inhibition in data set [1] (IC50).

Consider `CCOc1nc(Cl)cc2c1C(c1ccc(C#N)cc1OC)C(C(N)=O)=C(C)N2` (centres unmarked) [Compound 5], for which, in data set [1], the IC50 came to 5 nM.

For the compound `CCOc1ncc(C)c2c1C(c1cc(C)c(C#N)cc1OC)C(C(N)=O)=C(C)N2` (centres unmarked) [Compound 6], in data set [1], 10 nM corresponded to half-maximal inhibition (IC50). This IC50 is about 2-fold higher than that of the compound before.

Take `CCOc1ncc(C)c2c1[C@H](c1ccc(C#N)cc1OC)C(C(N)=O)=C(C)N2` [Finerenone]: the Remaining amount % in data set [3] (0.5 min) was determined as 100.00%; in data set [3] (5 min), 67.31%; in data set [3] (10 min) it was 42.44%; in data set [3] (15 min), 24.78%; in data set [3] (20 min), 16.62%; in data set [3] (30 min), 7.44%. This compound also had a half-life at 1 μM in data set [3] (in-vitro half-life) of 7.4 min. In data set [3] (in-vitro intrinsic clearance), this compound yielded a microsomal CLint at 1 μM of 93.7 µL/min/mg. Further, the UACR in data set [2] (0 weeks (before dosing)) is 5538.19 µg/mg; in data set [2] (setting [4]) it was 4294.14 µg/mg. Also, the Urine creatinine turned out to be 0.37 μmol/24 h in data set [2] (0 weeks (before dosing)) and 2.11 μmol/24 h in data set [2] (setting [4]). Further, the results for the Urine weight in data set [2] (0 weeks (before dosing)) and in data set [2] (setting [4]) were 2.86 mL and 11.96 mL, respectively. Further, the mALB in data set [2] (0 weeks (before dosing)) is on record as 226.68 μg/24 h; in data set [2] (setting [4]), 1,013.76 μg/24 h. Also, the “mALB compared to the model control group” value in data set [2] is on record as “tended to be lower than those in the model control group”. In data set [2], the “urine albumin-to-creatinine ratio (UACR) compared to the model control group” value is “decreased somewhat but is not significantly different from that of the mice in the model group”. Also, the “urine amount compared to the model control group” value in data set [2] is reported as “tended to be lower than those in the model control group”. In data set [1], this compound came in with an IC50 of 13 nM.

The values are drawn from patent publication US20240376101A1, “SUBSTITUTED 1,4-DIHYDRO-1,6-NAPHTHYRIDINE AMIDE AND USE THEREOF” (Tuojie Biotech (Shanghai) Co., Ltd., priority 2021, published 2024).
